IC50 data for 21 compounds are collected here from patent publication US8722671B2, “Isoquinoline derivatives” (Sanofi, priority 2005, dated 2014).

Molecules are shown by their SMILES.

T1 sequence (O75116 11-552 limits assumed): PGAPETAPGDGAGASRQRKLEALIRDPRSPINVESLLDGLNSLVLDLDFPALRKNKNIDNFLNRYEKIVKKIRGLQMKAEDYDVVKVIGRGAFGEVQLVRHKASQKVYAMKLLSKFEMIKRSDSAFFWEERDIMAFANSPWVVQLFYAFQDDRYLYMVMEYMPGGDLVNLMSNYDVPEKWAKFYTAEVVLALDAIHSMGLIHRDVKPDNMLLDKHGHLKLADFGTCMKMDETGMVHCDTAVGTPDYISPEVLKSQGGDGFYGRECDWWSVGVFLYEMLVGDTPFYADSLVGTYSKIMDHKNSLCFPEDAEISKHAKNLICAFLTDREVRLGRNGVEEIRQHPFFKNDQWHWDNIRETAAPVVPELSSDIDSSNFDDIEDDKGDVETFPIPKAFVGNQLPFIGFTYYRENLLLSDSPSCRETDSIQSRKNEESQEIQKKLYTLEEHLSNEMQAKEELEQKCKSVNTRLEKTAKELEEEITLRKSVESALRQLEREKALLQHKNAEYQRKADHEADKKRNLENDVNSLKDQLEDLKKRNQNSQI

This test has as its target T1, ROCKII or ROKα (Homo sapiens, UniProt O75116).
T1 construct: purchased Upstate 14-451
Nature of the test: Determination of Rho kinase inhibition (33P-ATP Streptavidin Flash Plate assay). The note with it: ATP 40 μM, activity denoted as pIC50 class. The class given is biochemical. The method, then:
Determination of Rho Kinase Inhibition
To measure Rho-kinase inhibition, IC50 values were determined according to the following protocol:
Buffer: 25 mM Tris pH7.5; 0.02% BSA; 5% Glycerol; 0.008% Triton X100; 2% DMSO, 1 mM DTT; 1 mM MgCl2; 0.5 μCi/well γ^33P ATP
Enzyme: ROCKII or ROKα) (Upstate, Catalog #14-451 Lot #24880U) 0.1 ng/μl
Final concentration of ATP in reaction mixture 40 μM
Biotinylated substrate, diluted to 0.25 μM with buffer described above (without ATP)
• 1. 10 μl Tris buffer (±Inhibitor) • 2. Add 30 μl of enzyme solution • 3. Start the reaction with 30 μL of mix substrate/ATP/ATP33 • 4. Incubate for 20 min at room temperature • 5. Stop reaction with 30 μL of 50 mM EDTA • 6. Transfer 50 μL of stopped solution to Streptavidin Flash Plate plus, Perkin Elmer, SMP 103A • 7. Incubate for 30 min at RT • 8. Wash 4 times with 300 μl of PBS/0.1% Tween 20 • 9. Radioactivity in the well was determined
Regarding `FC(F)(F)CCN1CCC(Oc2ccc3cnccc3c2)CC1.O=C(O)C(F)(F)F` [Compound 111], the IC50 entry is reported as “+++ (5.0≦pIC50<6.0)”. The result for `COc1cc(Nc2cc3cc(OC4CCNCC4)ccc3cn2)cc(OC)c1OC` [Compound 228] reads “++++ (6.0≦pIC50)”. To `CCc1cncc2ccc(OC3CCNCC3)cc12.Cl` [Compound 266, 4-Ethyl-6-(piperidin-4-yloxy)-isoquinoline] belongs “+++ (5.0≦pIC50<6.0)”; to `COc1ccc2cc(CN3CCC(Oc4ccc5cnccc5c4)CC3)ccc2c1.O=C(O)C(F)(F)F` [Compound 120], “++++ (6.0≦pIC50)”. To `COc1cccc(Nc2cc3c(C4CC4)c(OC4CCNCC4)ccc3cn2)c1.Cl` [Compound 265] belongs “+++ (5.0≦pIC50<6.0)”; to `Cl.c1cc2c(cc1Nc1cc3cc(OC4CCNCC4)ccc3cn1)OCO2` [Compound 261], “++++ (6.0≦pIC50)”; to `c1ccc(Cc2c(OC3CCNCC3)ccc3cnccc23)cc1` [Compound 29, 5-Benzyl-6-(piperidin-4-yloxy)-isoquinoline], “+++ (5.0≦pIC50<6.0)”. Turning to `O=C(O)C(F)(F)F.c1ccc(C(CN2CCC(Oc3ccc4cnccc4c3)CC2)c2ccccc2)cc1` [Compound 100], the IC50 entry is given as “+++ (5.0≦pIC50<6.0)”.

In the case of `c1ccc(-c2cc3cnccc3cc2OC2CCNCC2)cc1` [Compound 81], the IC50 entry is on record as “++++ (6.0≦pIC50)”. For `COc1ccc(-c2c(OC3CCNCC3)ccc3cnccc23)cc1N` [Compound 72], the IC50 result is “++++ (6.0≦pIC50)”. For the compound `Clc1cc2cnccc2c(Cl)c1OC1CCNCC1` [Compound 378, 5,7-Dichloro-6-(piperidin-4-yloxy)-isoquinoline], the IC50 result is reported as “++++ (6.0≦pIC50)”. To `Brc1c(OC2CCNCC2)ccc2cnccc12.Cl` [Compound 41] belongs “++++ (6.0≦pIC50)”. For the compound `O=C(O)C(F)(F)F.c1cc2cc(OC3CCCNC3)ccc2cn1` (stereo not drawn) [Compound 145], the IC50 result is “+++ (5.0≦pIC50<6.0)”.

With `Cc1c(OC2CCNCC2)cc2ccncc2c1C.Cl` [Compound 134], the IC50 result is given as “+++ (5.0≦pIC50<6.0)”. To `O=C(O)C(F)(F)F.c1ccc2oc(-c3c(OC4CCNCC4)ccc4cnccc34)cc2c1` [Compound 59] belongs “++++ (6.0≦pIC50)”; to `Cl.Clc1cncc2ccc(OC3CCNCC3)cc12` [Compound 156, 4-Chloro-6-(piperidin-4-yloxy)-isoquinoline hydrochloride], “++++ (6.0≦pIC50)”.

With `CN1CCCC(COc2ccc3cnccc3c2Br)C1.O=C(O)C(F)(F)F` (stereo not drawn) [Compound 138], the IC50 result is “++++ (6.0≦pIC50)”.

With `Cc1cc(OC2CCNCC2)c(C)c2ccncc12.Cl` [Compound 133], the IC50 entry is “++++ (6.0≦pIC50)”. Consider `Cl.Ic1c(OC2CCNCC2)ccc2cnccc12` [Compound 44], for which the IC50 entry is recorded as “++++ (6.0≦pIC50)”. For `Cl.Clc1cc(OC2CCNCC2)cc2ccncc12` [Compound 269, 8-Chloro-6-(Piperidin-4-yloxy)-isoquinoline hydrochloride], the IC50 result is reported as “++++ (6.0≦pIC50)”. The result for `OCc1cccc(-c2c(OC3CCNCC3)ccc3cnccc23)c1` [Compound 67] reads “+++ (5.0≦pIC50<6.0)”.
